# PubChem BioAssay (NCI)
#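 1) Cells in 96-well plates. 2) Compound, 48 h, 5 concentrations. 3) Linear interpolation between surrounding doses. 4) Unreached endpoint = highest concentration. GI50 marks 50% less growth. At the TGI there is no net growth.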
# Legend:
# Assay in all cases: inhibition of tumour cell growth, NCI panel, 48 h
# [1] = system: SW-620 colon
# [2] = system: MDA-MB-435
# [3] = system: CAKI-1 renal
# [4] = system: RXF 393 renal
# [5] = system: LOX IMVI melanoma
# [6] = system: HCT-116 colon
# [7] = system: A498 renal
# [8] = system: TK-10 renal
# [9] = system: SK-MEL-5 melanoma
# [10] = system: SNB-75 CNS
# [11] = system: SN12C renal
# [12] = system: PC-3 prostate
# [13] = system: BT-549 breast
# [14] = system: SR leukemia
# [15] = system: K-562 leukemia
# [16] = system: HOP-92 NSCLC
# [17] = system: UACC-257 melanoma
# [18] = system: T-47D breast
# [19] = system: A549 NSCLC
# [20] = system: SK-MEL-2 melanoma
# [21] = system: OVCAR-8 ovarian
# [22] = system: KM12 colon
# [23] = system: NCI-H23 lung
# [24] = system: HOP-62 NSCLC
# [25] = system: SF-295 CNS
# [26] = system: NCI/ADR-RES ovarian
# [27] = system: SNB-19 CNS
# [28] = system: CCRF-CEM leukemia
# [29] = system: MDA-MB-231 breast
# [30] = system: UO-31 renal
# [31] = system: COLO 205 colon
# [32] = system: UACC-62 melanoma
# [33] = system: DU-145 prostate
# [34] = system: OVCAR-3 ovarian
# [35] = system: HCT-15 colon
# [36] = system: MCF7 breast
# [37] = system: OVCAR-4 ovarian
# [38] = system: NCI-H460 lung
# [39] = system: SK-MEL-28 melanoma
# [40] = system: NCI-H522 lung
# [41] = system: HL-60(TB) leukemia
# [42] = system: IGROV1 ovarian
# [43] = system: MALME-3M melanoma
# [44] = system: U251 CNS
# [45] = system: ACHN renal
# [46] = system: SK-OV-3 ovarian
# [47] = system: EKVX NSCLC
# [48] = system: HS 578T breast
# [49] = system: MOLT-4 leukemia
# [50] = system: RPMI-8226 leukemia
# [51] = system: OVCAR-5 ovarian
# [52] = system: SF-268 CNS
# [53] = system: HT29 colon
# [54] = system: NCI-H226 lung
# [55] = system: HCC-2998 colon
compound,measurement,setting,value
COc1cc2c(/C=C3/C(=O)Nc4c3ccc3ccccc43)c(Cl)n(C)c2cc1C,GI50,[1],1110 nM
same,TGI,[1],11800 nM
same,GI50,[2],< 13.2 nM
same,TGI,[2],< 19.7 nM
same,GI50,[3],< 22.4 nM
same,TGI,[3],12600 nM
same,GI50,[4],20.3 nM
same,TGI,[4],2980 nM
same,GI50,[5],137 nM
same,TGI,[5],13700 nM
same,GI50,[6],< 44 nM
same,GI50,[7],666 nM
same,TGI,[7],3040 nM
same,GI50,[8],378 nM
same,TGI,[8],17300 nM
same,GI50,[9],636 nM
same,TGI,[9],1300 nM
same,TGI,[10],905 nM
same,GI50,[11],96.2 nM
same,TGI,[11],3510 nM
same,GI50,[12],132 nM
same,TGI,[12],3570 nM
same,GI50,[13],< 10 nM
same,GI50,[14],38.4 nM
same,TGI,[14],22200 nM
same,GI50,[15],194 nM
same,TGI,[15],21500 nM
same,GI50,[16],705 nM
same,TGI,[16],22400 nM
same,GI50,[17],< 10 nM
same,TGI,[17],29300 nM
same,GI50,[18],16900 nM
same,TGI,[18],> 100000 nM
same,GI50,[19],< 19.3 nM
same,TGI,[19],2010 nM
same,GI50,[20],< 14.7 nM
same,TGI,[20],10100 nM
same,GI50,[21],< 10 nM
same,GI50,[22],< 15.6 nM
same,TGI,[22],< 30.3 nM
same,TGI,[23],14700 nM
same,GI50,[24],680 nM
same,TGI,[24],16000 nM
same,GI50,[25],< 15.4 nM
same,TGI,[25],< 29.1 nM
same,GI50,[26],24.8 nM
same,TGI,[26],62.9 nM
same,GI50,[27],104 nM
same,TGI,[27],8450 nM
same,GI50,[28],73.1 nM
same,TGI,[28],1060 nM
same,GI50,[29],53.9 nM
same,TGI,[29],882 nM
same,GI50,[30],< 18.3 nM
same,TGI,[30],6170 nM
same,GI50,[31],74.6 nM
same,TGI,[31],180 nM
same,GI50,[32],104 nM
same,TGI,[32],15400 nM
same,GI50,[33],235 nM
same,TGI,[33],599 nM
same,GI50,[34],< 26.3 nM
same,GI50,[35],899 nM
same,TGI,[35],12600 nM
same,GI50,[36],< 17.9 nM
same,GI50,[37],1520 nM
same,TGI,[37],11600 nM
same,GI50,[38],< 18.9 nM
same,TGI,[38],> 28000 nM
same,TGI,[39],> 47700 nM
same,GI50,[40],< 10 nM
same,TGI,[40],< 12.6 nM
same,GI50,[41],59.7 nM
same,TGI,[41],> 100000 nM
same,GI50,[42],42.4 nM
same,TGI,[42],16100 nM
same,GI50,[43],156 nM
same,TGI,[43],19400 nM
same,GI50,[44],1260 nM
same,TGI,[44],12800 nM
same,GI50,[45],400 nM
same,TGI,[45],19500 nM
same,GI50,[46],177 nM
same,TGI,[46],13000 nM
same,GI50,[47],275 nM
same,TGI,[47],6290 nM
same,GI50,[48],358 nM
same,TGI,[48],1890 nM
same,GI50,[49],< 21.6 nM
same,TGI,[49],17300 nM
same,GI50,[50],< 20.4 nM
same,TGI,[51],10500 nM
same,GI50,[52],< 22.3 nM
same,TGI,[52],18700 nM
same,GI50,[53],< 19.6 nM
same,GI50,[54],1270 nM
same,TGI,[54],24500 nM
same,GI50,[55],< 47 nM
